Experimental data reported in PubChem BioAssay (NCI).
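Compound exposure: 48 hours, 5 concentrations, 96-well plates. The concentration for full growth arrest is given as TGI.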

Assays:
Assay in all cases: NCI-60 cell line screen, 48 h
NCI/ADR-RES ovarian = test system: NCI/ADR-RES ovarian
OVCAR-4 ovarian = test system: OVCAR-4 ovarian
CAKI-1 renal = test system: CAKI-1 renal
OVCAR-3 ovarian = test system: OVCAR-3 ovarian
SN12C renal = test system: SN12C renal
MDA-MB-435 = test system: MDA-MB-435
ACHN renal = test system: ACHN renal
A498 renal = test system: A498 renal
UACC-257 melanoma = test system: UACC-257 melanoma
LOX IMVI melanoma = test system: LOX IMVI melanoma
BT-549 breast = test system: BT-549 breast
MDA-MB-231 breast = test system: MDA-MB-231 breast
MDA-N = test system: MDA-N
HCT-15 colon = test system: HCT-15 colon
EKVX NSCLC = test system: EKVX NSCLC
CCRF-CEM leukemia = test system: CCRF-CEM leukemia
786-0 renal = test system: 786-0 renal
NCI-H522 lung = test system: NCI-H522 lung
SK-MEL-28 melanoma = test system: SK-MEL-28 melanoma
HCT-116 colon = test system: HCT-116 colon
U251 CNS = test system: U251 CNS
NCI-H226 lung = test system: NCI-H226 lung
T-47D breast = test system: T-47D breast
DU-145 prostate = test system: DU-145 prostate
MCF7 breast = test system: MCF7 breast
SF-539 CNS = test system: SF-539 CNS
NCI-H460 lung = test system: NCI-H460 lung
HCC-2998 colon = test system: HCC-2998 colon
TK-10 renal = test system: TK-10 renal
SF-268 CNS = test system: SF-268 CNS
COLO 205 colon = test system: COLO 205 colon
HOP-92 NSCLC = test system: HOP-92 NSCLC
SF-295 CNS = test system: SF-295 CNS
SR leukemia = test system: SR leukemia
K-562 leukemia = test system: K-562 leukemia
SK-MEL-2 melanoma = test system: SK-MEL-2 melanoma
SNB-19 CNS = test system: SNB-19 CNS
UACC-62 melanoma = test system: UACC-62 melanoma
SK-MEL-5 melanoma = test system: SK-MEL-5 melanoma
A549 NSCLC = test system: A549 NSCLC
M14 melanoma = test system: M14 melanoma
RPMI-8226 leukemia = test system: RPMI-8226 leukemia
SNB-75 CNS = test system: SNB-75 CNS
MALME-3M melanoma = test system: MALME-3M melanoma
OVCAR-5 ovarian = test system: OVCAR-5 ovarian
HS 578T breast = test system: HS 578T breast
UO-31 renal = test system: UO-31 renal
SW-620 colon = test system: SW-620 colon
OVCAR-8 ovarian = test system: OVCAR-8 ovarian
KM12 colon = test system: KM12 colon
IGROV1 ovarian = test system: IGROV1 ovarian
PC-3 prostate = test system: PC-3 prostate
RXF 393 renal = test system: RXF 393 renal
MOLT-4 leukemia = test system: MOLT-4 leukemia
HL-60(TB) leukemia = test system: HL-60(TB) leukemia
NCI-H23 lung = test system: NCI-H23 lung
HT29 colon = test system: HT29 colon
SK-OV-3 ovarian = test system: SK-OV-3 ovarian
HOP-62 NSCLC = test system: HOP-62 NSCLC

CCOC(=O)c1nc2cc(C(F)(F)F)ccc2nc1Oc1ccc(F)cc1
TGI (NCI/ADR-RES ovarian): > 100 µM
TGI (OVCAR-4 ovarian): > 100 µM
TGI (CAKI-1 renal): > 100 µM
TGI (OVCAR-3 ovarian): > 100 µM
TGI (SN12C renal): > 100 µM
TGI (MDA-MB-435): > 100 µM
TGI (ACHN renal): > 100 µM
TGI (A498 renal): > 100 µM
TGI (UACC-257 melanoma): > 100 µM
TGI (LOX IMVI melanoma): > 100 µM
TGI (BT-549 breast): > 100 µM
TGI (MDA-MB-231 breast): > 100 µM
TGI (MDA-N): > 100 µM
TGI (HCT-15 colon): > 100 µM
TGI (EKVX NSCLC): > 100 µM
TGI (CCRF-CEM leukemia): > 100 µM
TGI (786-0 renal): > 100 µM
TGI (NCI-H522 lung): > 100 µM
TGI (SK-MEL-28 melanoma): > 100 µM
TGI (HCT-116 colon): 64.2 µM
TGI (U251 CNS): > 100 µM
TGI (NCI-H226 lung): > 100 µM
TGI (T-47D breast): > 100 µM
TGI (DU-145 prostate): > 100 µM
TGI (MCF7 breast): > 100 µM
TGI (SF-539 CNS): > 100 µM
TGI (NCI-H460 lung): > 100 µM
TGI (HCC-2998 colon): > 100 µM
TGI (TK-10 renal): > 100 µM
TGI (SF-268 CNS): > 100 µM
TGI (COLO 205 colon): > 100 µM
TGI (HOP-92 NSCLC): > 100 µM
TGI (SF-295 CNS): > 100 µM
TGI (SR leukemia): > 100 µM
TGI (K-562 leukemia): > 100 µM
TGI (SK-MEL-2 melanoma): > 100 µM
TGI (SNB-19 CNS): > 100 µM
TGI (UACC-62 melanoma): > 100 µM
TGI (SK-MEL-5 melanoma): > 100 µM
TGI (A549 NSCLC): > 100 µM
TGI (M14 melanoma): > 100 µM
TGI (RPMI-8226 leukemia): > 100 µM
TGI (SNB-75 CNS): > 100 µM
TGI (MALME-3M melanoma): > 100 µM
TGI (OVCAR-5 ovarian): > 100 µM
TGI (HS 578T breast): > 100 µM
TGI (UO-31 renal): > 100 µM
TGI (SW-620 colon): > 100 µM
TGI (OVCAR-8 ovarian): > 100 µM
TGI (KM12 colon): > 100 µM
TGI (IGROV1 ovarian): > 100 µM
TGI (PC-3 prostate): > 100 µM
TGI (RXF 393 renal): > 100 µM
TGI (MOLT-4 leukemia): > 100 µM
TGI (HL-60(TB) leukemia): > 100 µM

COc1ccc(C2C3=C(COC3=O)OC(C)(C)Oc3cc4c(cc32)OCO4)cc1OC (centres undefined)
TGI (NCI/ADR-RES ovarian): 58.7 µM
TGI (OVCAR-4 ovarian): > 100 µM
TGI (CAKI-1 renal): > 100 µM
TGI (OVCAR-3 ovarian): > 100 µM
TGI (SN12C renal): > 100 µM
TGI (MDA-MB-435): 41.3 µM
TGI (ACHN renal): > 100 µM
TGI (A498 renal): 63.8 µM
TGI (UACC-257 melanoma): > 100 µM
TGI (LOX IMVI melanoma): > 100 µM
TGI (BT-549 breast): 99.5 µM
TGI (NCI-H23 lung): > 100 µM
TGI (MDA-MB-231 breast): > 84.1 µM
TGI (MDA-N): 39.2 µM
TGI (HCT-15 colon): > 100 µM
TGI (EKVX NSCLC): > 89.8 µM
TGI (CCRF-CEM leukemia): > 100 µM
TGI (786-0 renal): > 100 µM
TGI (NCI-H522 lung): > 73.8 µM
TGI (SK-MEL-28 melanoma): > 100 µM
TGI (HCT-116 colon): > 92.3 µM
TGI (U251 CNS): > 100 µM
TGI (NCI-H226 lung): > 100 µM
TGI (T-47D breast): 96.9 µM
TGI (DU-145 prostate): > 100 µM
TGI (MCF7 breast): > 90.9 µM
TGI (SF-539 CNS): 72.6 µM
TGI (NCI-H460 lung): > 100 µM
TGI (HCC-2998 colon): > 100 µM
TGI (TK-10 renal): > 100 µM
TGI (SF-268 CNS): > 31.6 µM
TGI (COLO 205 colon): 48.1 µM
TGI (HOP-92 NSCLC): > 73.8 µM
TGI (SF-295 CNS): 88.4 µM
TGI (SR leukemia): > 100 µM
TGI (K-562 leukemia): > 95.7 µM
TGI (HT29 colon): > 100 µM
TGI (SK-MEL-2 melanoma): > 100 µM
TGI (SNB-19 CNS): > 100 µM
TGI (UACC-62 melanoma): > 75.4 µM
TGI (SK-MEL-5 melanoma): > 74.3 µM
TGI (A549 NSCLC): > 100 µM
TGI (M14 melanoma): > 80.3 µM
TGI (RPMI-8226 leukemia): > 100 µM
TGI (SNB-75 CNS): 24.8 µM
TGI (MALME-3M melanoma): > 100 µM
TGI (SK-OV-3 ovarian): > 100 µM
TGI (HOP-62 NSCLC): > 100 µM
TGI (OVCAR-5 ovarian): > 100 µM
TGI (HS 578T breast): > 100 µM
TGI (UO-31 renal): > 100 µM
TGI (SW-620 colon): > 100 µM
TGI (OVCAR-8 ovarian): > 100 µM
TGI (KM12 colon): 67.2 µM
TGI (IGROV1 ovarian): > 100 µM
TGI (PC-3 prostate): 72.4 µM
TGI (RXF 393 renal): 68.8 µM
TGI (MOLT-4 leukemia): > 100 µM
TGI (HL-60(TB) leukemia): > 87.9 µM
